Reference: PMC12064818, “A general assay platform to study protein pharmacology using ligand-dependent structural dynamics” (Nature Communications, 2025)
Values joined by “and” are separate entries in the source; they are usually repeats but may differ in a detail not shown here. Equal values may be shown once. Where a name gives a salt, the structure may show the parent alone. Read-outs that look alike come from different tables or passages of the source.

What was measured:
ABL1 = conditions: cited from earlier work
[1] = molecular target: T1, ABL1-N-HiBiT kinase domain (Homo sapiens, UniProt P00519); test: SDR assay, ABL1-N-HiBiT; conditions: for ABL1 SDR pSDR50: heatmap data, 128 kinase inhibitors; for EC50: read-out: SDR Ave SDR50, average, unit inferred
T1 sequence (P00519 233-500): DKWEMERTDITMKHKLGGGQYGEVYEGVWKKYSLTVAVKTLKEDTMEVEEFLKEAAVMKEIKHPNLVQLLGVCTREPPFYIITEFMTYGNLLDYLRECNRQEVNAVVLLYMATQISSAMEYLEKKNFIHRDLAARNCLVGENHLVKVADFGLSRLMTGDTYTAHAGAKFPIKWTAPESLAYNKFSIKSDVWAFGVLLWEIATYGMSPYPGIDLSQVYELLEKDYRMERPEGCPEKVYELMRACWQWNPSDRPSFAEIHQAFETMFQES

PKA-N-HiBiT [2] = molecular target: T2, PKA-N-HiBiT (Homo sapiens, UniProt P17612); test: SDR assay, PKA-N-HiBiT; conditions: for SDR Ave Max Response: average maximal response; for PKA SDR: Log [H-89]
PKA = conditions: annotation yes/no for kinase library compound; source not given; cited from earlier work
PKA-N-HiBiT [3] = molecular target: T2, PKA-N-HiBiT; test: PKA peptide phosphorylation, Kinase-Glo Plus (KGP) assay, PKA-N-HiBiT; assay type: biochemical; design: containing amino acids Gly2-Phe351; His10 (N); made in house; host or cells: E. coli BL21(DE3); conditions: for Efficacy / Hill Coef / Max Resp / CC-v2: KGP Rep 1; for CC-v2: curve class
Description: (§1) Kinase activity was measured by ATP depletion using the Kinase-Glo Plus (KGP) assay kit (Promega) in 1536-well plate format. […] Controls were added with a Mosquito dispenser (STP LabTech) while compounds were transferred with a pintool to each plate as described in Supplementary Data 8 and incubated for 30 min at ambient temperature. […] Following a 10 min incubation, KGP luminescence was measured with a ViewLux plate reader with 1 sec exposure, with medium to high gain setting, slow speed and 2x binning. Data were normalized to the average of no enzyme control column as 100% kinase inhibition and DMSO control column as 100% phosphorylation reaction progress. See Supplementary Table 5 for additional details.
(§2) Protocol for Abelson kinase (ABL1) and protein kinase A (PKA) peptide phosphorylation assays
(§3) Supplementary Table 5: Protocol for Abelson kinase (ABL1) and protein kinase A (PKA) peptide phosphorylation assays Sequence Param eter Value Description
(§4) 3 Incubation 30 m in Incubate enzym e + com pounds at am bient tem p for 30 m in, protected from light […]
(§5) protocol; dispensed with BioRaptr 2

[4] = molecular target: T1, ABL1-N-HiBiT kinase domain; test: ABL1 peptide phosphorylation, Kinase-Glo Plus (KGP) assay, ABL1-N-HiBiT; assay type: biochemical; design: containing amino acid residues Asp233-Ser500; His10 (N); made in house; host or cells: E. coli BL21(DE3); conditions: for ABL1 KGP pIC50: ABL1, Kinase-Glo Plus (KGP), heatmap data, 128 kinase inhibitors; for IC50: ABL1-N-HiBiT qHTS, average, unit inferred, read-out: ABL1 KGP Ave IC50; for Efficacy / Hill Coef / Max Resp / CC-v2: KGP Rep 1; for CC-v2: curve class
Description: as §1, §2, §3, §4, §5

[5] = ABL1-N-HiBiT qHTS, average maximal SDR response
[6] = PKA-N-HiBiT qHTS, Kinase-Glo Plus, average, read-out: PKA KGP Ave IC50
[7] = read-out: PKA SDR Ave SDR50, PKA-N-HiBiT qHTS, SDR assay, average
[8] = Figure 2i correlation plot data, read-out: ABL1 Enz Assay Mean (PKA KGP assay pIC50) (converted)
[9] = PKA-N-HiBiT […] Std, ligand 62.5 µM Std
[10] = PKA-N-HiBiT 10 nM SDR, ligand 35.7 µM SDR

| Compound | Annotated ABL1 activity (ABL1) | SDR Ave Max Response [1, 5] | SDR Ave Max Response (PKA-N-HiBiT [2]; PKA-N-HiBiT qHTS, SDR assay) | Annotated PKA activity (PKA) | ABL1 SDR pSDR50 [1] | EC50 ([1]; ABL1-N-HiBiT qHTS) [µM] | EC50 (PKA-N-HiBiT [2]; [7]) [µM] | other results |
| --- | --- | --- | --- | --- | --- | --- | --- | --- |
| CC(C)(C)n1nc(-c2cccc3ccccc23)c2c(N)ncnc21 [1-Naphthyl PP1] | yes | 61.87 | 10.40 | no |  |  |  |  |
| Cc1n[nH]c2ccc(-c3cncc(OC[C@@H](N)Cc4c[nH]c5ccccc45)c3)cc12 [A-443654] |  | -27.36 | 40.10 | yes | 5.32 | 5.63 | 0.188 | IC50 (PKA-N-HiBiT [3]; [6]): 2.06 µM |
| O=C(Nc1c[nH]nc1-c1nc2ccc(CN3CCOCC3)cc2[nH]1)NC1CC1 [AT9283] |  |  | 67.79 | yes |  |  | 0.0453 | IC50 (PKA-N-HiBiT [3]; [6]): 0.861 µM; EC50 (PKA-N-HiBiT [2]): 0.0437 µM |
| COc1cc(N2CCOCC2)ccc1Nc1ncc(Cl)c(Nc2ccccc2NS(C)(=O)=O)n1 [CZC 54252 HCl] |  | 69.42 | 40.07 | no | 5.09 | 9.66 | 1.58 | ABL1 KGP pIC50 [4]: 5.38; IC50 [4]: 10.1 µM; IC50 (PKA-N-HiBiT [3]; [8]): 33.9 µM; IC50 (PKA-N-HiBiT [3]; [6]): 49.9 µM; EC50 (PKA-N-HiBiT [2]): 1.35 µM |
| COc1cc2c(Oc3ccc4[nH]c(C)cc4c3F)ncnc2cc1OCCCN1CCCC1 [Cediranib] | yes |  | 5.41 | no |  |  |  | SDR Ave Max Response [1]: 72.22 |
| c1cc(-c2cc(C3CCNCC3)[nH]n2)ccn1 [ETP 45835 2HCl] |  | -32.09 | 25.66 | no | 5.02 | 9.57 | 19.7 | IC50 (PKA-N-HiBiT [3]; [8]): 83.2 µM; EC50 (PKA-N-HiBiT [2]): 8.32 µM |
| Cc1cc(O)c2c(c1)C(=O)c1cc(O)cc(O)c1C2=O [Emodin] |  | -3.42 | -14.68 | no |  |  | 15.2 | Efficacy [4]: 23.75; Hill Coef [4]: 1.10; Max Resp [4]: 17.37; CC-v2 [4]: 4; Efficacy (PKA-N-HiBiT [3]): -14.49; Hill Coef (PKA-N-HiBiT [3]): 3.19; Max Resp (PKA-N-HiBiT [3]): 8.59; CC-v2 (PKA-N-HiBiT [3]): 4; EC50 (PKA-N-HiBiT [2]): 14.1 µM |
| O=S(=O)(NCCNC/C=C/c1ccc(Br)cc1)c1cccc2cnccc12 [H-89, reference compound] |  |  |  |  |  |  |  | Standard assay statistics Ave RLU (PKA-N-HiBiT [3]; [9]): 21788.2 RLU; Standard assay statistics S:B (PKA-N-HiBiT [3]; [9]): 6.8; Standard assay statistics S:N (PKA-N-HiBiT [3]; [9]): 6.3; Standard assay statistics Z’ (PKA-N-HiBiT [3]; [9]): 0.328; PKA SDR (PKA-N-HiBiT [2]; M -4.45): 61.3 and 59.1 and 49.2; PKA SDR (PKA-N-HiBiT [2]; M -4.75): 61.4 and 58.5 and 52.3; PKA SDR (PKA-N-HiBiT [2]; M -5.05): 60.9 and 55.5 and 49.6; PKA SDR (PKA-N-HiBiT [2]; M -5.35): 55.3 and 45.9 and 48.2; PKA SDR (PKA-N-HiBiT [2]; M -5.65): 48.5 and 39.4 and 60.1; PKA SDR (PKA-N-HiBiT [2]; M -5.95): 47.4 and 33.3 and 39.2; PKA SDR (PKA-N-HiBiT [2]; M -6.25): 38.3 and 24.0 and 33.5; PKA SDR (PKA-N-HiBiT [2]; M -6.55): 31.1 and 18.8 and 27.3; SDR assay statistics Ave RLU (PKA-N-HiBiT [2]; [10]): 31921.7 RLU; SDR assay statistics S:B (PKA-N-HiBiT [2]; [10]): 1.5; SDR assay statistics S:N (PKA-N-HiBiT [2]; [10]): 2.6; SDR assay statistics Z’ (PKA-N-HiBiT [2]; [10]): -0.628 |
| COc1ccc(S(=O)(=O)N(C(C)=O)c2ccccc2/C=C/c2cc[n+]([O-])cc2)cc1 [HMN-214] | no | 8.52 | 5.93 | no |  |  |  |  |
| COc1cc(N2CCN(C)CC2)ccc1Nc1nc(N)c(C(=O)c2c(Cl)cccc2Cl)s1 [HMSL10089] | no |  | -4.43 | no |  |  |  | SDR Ave Max Response [1]: 0.77 |
| O=[N+]([O-])O[C@H]1CO[C@H]2[C@@H]1OC[C@H]2O[N+](=O)[O-] [Isosorbide dinitrate] | no | 6.72 | 6.02 | no |  |  |  |  |
| C/C(O)=C(\C#N)C(=O)Nc1cc(Br)ccc1Br [LFM-A13] | no | -82.68 | -81.79 | no | 5.44 | 3.72 | 4.14 | PKA SDR Assay Mean (pSDR50) (PKA-N-HiBiT [2]; without ATP): 5.40 |
| CCN(CC)CCOc1ccc(Nc2ncc3cc(-c4c(Cl)cccc4Cl)c(=O)n(C)c3n2)cc1.Cl.Cl.O [PD-166285 hydrate] | yes | 51.60 | -22.35 | no |  |  |  |  |
| Cn1cc(-c2[nH]c3cc(NC(=O)[C@H](N)C4CCCCC4)cc4c3c2C=NNC4=O)cn1 [PF-477736] |  |  |  |  |  |  |  | IC50 (PKA-N-HiBiT [3]; [8]): 4.47 µM; EC50 (PKA-N-HiBiT [2]): 1.26 µM |
| CN(c1ncccc1CNc1nc(Nc2ccc3c(c2)CC(=O)N3)ncc1C(F)(F)F)[S+](C)(=O)[O-] [PF-562271 HCl] |  |  |  |  |  |  |  | IC50 (PKA-N-HiBiT [3]; [8]): 44.7 µM; EC50 (PKA-N-HiBiT [2]): 3.98 µM |
| Nc1ncnc2c1c(-c1cnc3[nH]ccc3c1)nn2C1CCCC1 [PP-121] | yes |  | 6.39 | yes |  |  |  |  |
| N[C@H]1CC[C@H](Nc2nc(Nc3ccc(C(=O)N4CCCCC4)cc3)c3ncn(-c4cccc(F)c4)c3n2)CC1 [Purfalcamine] |  | 91.87 | 23.75 | no | 6.61 | 0.248 |  | ABL1 KGP pIC50 [4]: 5.42; IC50 [4]: 3.88 µM; IC50 (PKA-N-HiBiT [3]; [8]): 22.9 µM; IC50 (PKA-N-HiBiT [3]; [6]): 30 µM; EC50 (PKA-N-HiBiT [2]): 117 µM |
| O=c1c(O)c(-c2ccc(O)c(O)c2)oc2cc(O)cc(O)c12 [Quercetin] |  | 48.80 | -5.00 | no |  | 9.18 |  | IC50 [4]: 5.88 µM; Efficacy (PKA-N-HiBiT [3]): -15.69; Hill Coef (PKA-N-HiBiT [3]): 1.22; Max Resp (PKA-N-HiBiT [3]): 9.03; CC-v2 (PKA-N-HiBiT [3]): 4 |
| CCN1/C(=C/C(C)=O)Sc2ccc(OC)cc21 [TG003] |  | 9.57 | 6.70 | no |  |  |  | Efficacy [4]: 49.18; Hill Coef [4]: 4.96; Max Resp [4]: 37.84; CC-v2 [4]: 3; Efficacy (PKA-N-HiBiT [3]): 0.00; Max Resp (PKA-N-HiBiT [3]): 8.95; CC-v2 (PKA-N-HiBiT [3]): 4 |
| COc1cc2c(N3CCN(C(=O)Nc4ccc(OC(C)C)cc4)CC3)ncnc2cc1OCCCN1CCCCC1 [Tandutinib] | no |  | 7.68 | no |  |  |  | SDR Ave Max Response [1]: 63.54 |
| N#Cc1cn([C@@H]2O[C@H](CO)[C@@H](O)[C@H]2O)c2ncnc(N)c12 [Toyocamycin] | no | 72.44 | -0.53 | no | 4.93 | 12.8 |  |  |
| I-BET762 | no | 6.74 |  |  |  |  |  |  |
| PF-477736 |  | 81.41 | 33.34 | no | 6.38 | 0.432 | 1.29 | ABL1 KGP pIC50 [4]: 6.01; IC50 [4]: 1.04 µM; IC50 (PKA-N-HiBiT [3]; [6]): 5.32 µM |
| PF-562271 HCl |  | 70.73 | 40.60 | no | 4.94 | 12 | 4.56 | IC50 [4]: 5.86 µM; IC50 (PKA-N-HiBiT [3]; [6]): 45.5 µM |
